Experimental data reported in patent US20110105623A1 (Biogenic Innovations, LLC, priority 2009, published 2011).

What was measured:
Aspergillus niger = test: USP Antimicrobial Effectiveness Test (AET), MSM in TSB; type: cell-based; set-up: key to AET microorganism count: Colonies too numerous to count (TNTC); conditions: for Log Reduction from Initial Microorganism Inoculum: 1:10 dilution of MSM, 14, 28 Days; for AET microorganism count: 48 hrs
Text: (§1) Compounds or formulated products having antimicrobial activity may be evaluated with the United States Pharmacopeia (USP) Antimicrobial Effectiveness Test (AET). The AET involves the addition of specified microorganisms (Candida albicans, Aspergillus niger, Escherichia coli, Pseudomonas aeruginosa and Staphylococcus aureus) directly to a test product at relatively high concentrations to simulate contamination. The product is held for one month, with weekly analysis of microorganism levels. Depending on the route of administration of a product, satisfaction of the AET generally requires a 1 to 3 log reduction in bacteria from initial levels, which should occur in one to two weeks, with no further increase in bacteria after two weeks. For yeast and mold, no increase from the initial inoculums level is permitted.
(§2) Inoculations were made using Candida albicans, Aspergillus niger, Escherichia coli, Pseudomonas aeruginosa and Staphylococcus aureus. Tryptic soy broth (TSB) was used as the culturing media. […] The inoculated media was held for one month, during which time the added microorganisms were enumerated weekly to determine if they were growing, dying off, or remaining near the initial inoculation level. Data points were measured in triplicate at 48 hours, 3, 5, 14, 20, 28, and 30 days. The acceptance criteria for antimicrobial effectiveness are described in detail in the USP, herein incorporated by reference.

Escherichia coli = test: USP AET, MSM in TSB; type: cell-based; set-up: key: Colonies too numerous to count (TNTC); conditions: 48 hrs
Text: as §1, §2

Pseudomonas aeruginosa = test: USP AET, MSM in TSB; type: cell-based; set-up: key: Colonies too numerous to count (TNTC); conditions: 48 hrs
Text: as §1, §2

E. coli = test: Log growth in MSM-lactose broth with or without DMSO; type: cell-based, Escherichia coli; conditions: 24 hours
Experimental: Lactose broth, free of both NaCl and of proteins, was used as the media in this experiment. […] Each media composition was initially inoculated with 6.75×10^6 cfu/mL of E. coli. Cultures were incubated at 25° C. for seven days. Aliquots of each culture were taken after 24 hours of culturing and at the end of seven days in culture. Aliquots were serially diluted (with Modified Letheen diluent) and plated on trypto-soy agar plates.

Bifidobacterium bifidum = test: Growth in MRS broth fortified with MSM (anaerobic); type: cell-based; conditions: for log higher than the 0% MSM control: 48 hours
Experimental: Each organism (Lactobacillus rhamnosus, Lactobacillus acidophilus, and Bifidobacterium bifidum) was grown in MRS bacterial growth medium (broth) and plated on MRS agar at different time intervals. Results are expressed in colony forming units per milliliter (cfu/mL).
The 0.1% and 0.04% test concentrations were prepared by making a 1:10 dilution of the 1% and 0.4% test solutions. Once each set of test media was plated for sterility, they were inoculated at a level of 100 μl of inoculum per 100 g or mLs of test broth (1:1000 inoculum dilutions) with each respective microorganism. All bacterial organisms were incubated at 35° C.+/−2° C. for the duration of the study.
All samples were plated on MRS agar at time 0, 12, 36, 48, 60 and 72 hours (+/−45 minutes). All preparations and plating were conducted at room temperature. All plating events were incubated at 35° C.+/−2° C. for at least 2 days or 3 days for Bifidobacterium. Test samples were plated in triplicate at each test date and the averages are reported.
Bifidobacterium bifidum, a common microbe used in probiotics, was also tested. All Bifidobacterium samples were incubated under anaerobic conditions.

[1] = test system: Acidophilus plus Bifidus milk microorganisms; test: Recovery from Acidophilus plus bifidus milk fortified with MSM; type: cell-based; conditions: for Lag Recovery of Lactobacillus acidophilus in Milk fortified with MSM Day 14: A/B 2.5 MSM; for Lag Recovery of Lactobacillus acidophilus in Milk fortified with MSM Day 7 / Lag Recovery of Lactobacillus acidophilus in Milk fortified with MSM Day 21 / Lag Recovery of Lactobacillus acidophilus in Milk fortified with MSM Day 28: A/B […] MSM

With Methylsulfonylmethane [MSM] the “Log Reduction from Initial Microorganism Inoculum” value (Aspergillus niger; 14 days after inoculation) was 4.3 log, the “Log Reduction from Initial Microorganism Inoculum” value (Aspergillus niger; 28 days after inoculation) was 4.5 log and the AET microorganism count (Aspergillus niger; 1:100 dilution of MSM) was “TNTC*”. For the same substance, the AET microorganism count (Aspergillus niger; 1:1000 dilution of MSM) was “TNTC*”, the AET microorganism count (Escherichia coli; 1:100 dilution of MSM) was “TNTC” and the AET microorganism count (Escherichia coli; 1:1000 dilution of MSM) was “TNTC”. For the same substance, the AET microorganism count (Pseudomonas aeruginosa; 1:100 dilution of MSM) was “TNTC”, the AET microorganism count (Pseudomonas aeruginosa; 1:1000 dilution of MSM) was “TNTC” and the reduced bacterial growth (E. coli; 11% MSM) was “about 2.2 logs”. For the same substance, the reduced bacterial growth (E. coli; 16% MSM) was “about 1 log”, the “log increases of Bifidobacterium” value (Bifidobacterium bifidum; 0.2% MSM) was 2 log and the “log higher than the 0% MSM control” value (Bifidobacterium bifidum; 0.04% MSM) was 1 log. For the same substance, the “log higher than the 0% MSM control” value (Bifidobacterium bifidum; 0.2% MSM) was 1 log, the “Lag Recovery of Lactobacillus acidophilus in Milk fortified with MSM Day 14” value (“Lag Recovery … with MSM Day 14” below) ([1]; Day 14-24) was 13.35 logs and the “Lag Recovery … with MSM Day 14” value ([1]; Day 14-48) was 13.47 logs. The “Lag Recovery … with MSM Day 14” value ([1]; Day 14-72) was 13.43 logs, the “Lag Recovery of Lactobacillus acidophilus in Milk fortified with MSM Day 7” value ([1]; Day 7-24) was 13.44 logs and the “Lag Recovery of Lactobacillus acidophilus in Milk fortified with MSM Day 7” value ([1]; Day 7-72) was 12.77 logs. For the same substance, the “Lag Recovery of Lactobacillus acidophilus in Milk fortified with MSM Day 21” value (“Lag Recovery … with MSM Day 21” below) ([1]; Day 21-24) was 13.08 logs, the “Lag Recovery … with MSM Day 21” value ([1]; Day 21-48) was 12.08 logs and the “Lag Recovery … with MSM Day 21” value ([1]; Day 21-72) was 12.33 logs. The “Lag Recovery of Lactobacillus acidophilus in Milk fortified with MSM Day 28” value (“Lag Recovery … with MSM Day 28” below) ([1]; Day 28-24) was 12.67 logs, the “Lag Recovery … with MSM Day 28” value ([1]; Day 28-48) was 13.19 logs and the “Lag Recovery … with MSM Day 28” value ([1]; Day 28-72) was 12.00 logs. For the same substance, the “Recovery of Lactobacillus acidophilus in Milk fortified with MSM Day 7, initial start data” value ([1]; Ac/Bf […] MSM, Day 7) was 8.42 logs, the “Recovery of Lactobacillus acidophilus in Milk fortified with MSM Day 14, initial start data” value ([1]; Ac/Bf […] MSM, Day 14-0) was 3.70 logs and the “Recovery of Lactobacillus acidophilus in Milk fortified with MSM Day 21, initial start data” value ([1]; Ac/Bf […] MSM, Day 21) was 3.37 logs. For the same substance, the “Recovery of Lactobacillus acidophilus in Milk fortified with MSM Day 28, initial start data” value ([1]; Ac/Bf […] MSM, Day 28) was 1.94 logs, the “Day 7 log recovery growth rate increase from start time of zero” value (“Day 7 log recovery growth rate increase” below) ([1]; Ac/Bf […] MSM, Hour 0) was 0.00 logs and the “Day 14 log recovery growth rate increase from start time of zero” value (from here on “Day 14 log recovery growth rate increase”) ([1]; Ac/Bf […] MSM, Hour 0) was 0.00 logs. The “Day 21 log recovery growth rate increase from start time of zero” value (“Day 21 log recovery growth rate increase” below) ([1]; Ac/Bf […] MSM, Hour 0) was 0.00 logs, the “Day 7 log recovery growth rate increase” value ([1]; Ac/Bf […] MSM, Hour 24) was 5.02 logs and the “Day 14 log recovery growth rate increase” value ([1]; Ac/Bf […] MSM, Hour 24) was 9.65 logs. For the same substance, the “Day 21 log recovery growth rate increase” value ([1]; Ac/Bf […] MSM, Hour 24) was 9.71 logs, the “Day 7 log recovery growth rate increase” value ([1]; Ac/Bf […] MSM, Hour 48) was −0.94 logs and the “Day 14 log recovery growth rate increase” value ([1]; Ac/Bf […] MSM, Hour 48) was 0.12 logs. The “Day 21 log recovery growth rate increase” value ([1]; Ac/Bf […] MSM, Hour 48) was −1.00 logs, the “Day 7 log recovery growth rate increase” value ([1]; Ac/Bf […] MSM, Hour 72) was 0.27 logs and the “Day 14 log recovery growth rate increase” value ([1]; Ac/Bf […] MSM, Hour 72) was −0.04 logs. The “Day 21 log recovery growth rate increase” value ([1]; Ac/Bf […] MSM, Hour 72) was 0.25 logs, the “Day 28 log recovery growth rate increase from start time of zero” value (shortened to “Day 28 log recovery growth rate increase”) ([1]; Ac/Bf […] MSM, Time 0) was 0.00 logs and the “Day 28 log recovery growth rate increase” value ([1]; Ac/Bf […] MSM, Time 24) was 10.73 logs. The “Day 28 log recovery growth rate increase” value ([1]; Ac/Bf […] MSM, Time 48) was 0.52 logs and the “Day 28 log recovery growth rate increase” value ([1]; Ac/Bf […] MSM, Time 72) was −1.19 logs.
